US10745380B2, “Pyridine derivatives and their use in the treatment of cancer and hemoglobinopathies” (CTXT PTY LTD, priority 2016, dated 2020)
Where a name gives a salt, the structure may show the parent alone.

Tests used:
[1] = molecular target: Full-length PRMT5 enzyme co-expressed with His6-MEP50 (Homo sapiens (Human), UniProt O14744); assay: PRMT5 Biochemical Assay; details: Transcreener EPIGEN methyltransferase assay, histone H4 derived peptide substrate, 4 hours at 37 degree Celsius
Experimental: Assays PRMT5 Biochemical Assay
Compounds of the invention may be tested for in vitro activity in the following assay: A histone H4 derived peptide is used as substrate (amino acid sequence: […]NH2). Full-length PRMT5 enzyme (NCBI Reference sequence NP_006100.2) was co-expressed with His6-MEP50 in insect cells and purified via Nickel immobilized metal affinity and gel filtration chromatography (“the enzyme”).
The 6 μL reactions are run in Greiner brand black 384-well low volume assay plates. All reactions contained assay buffer (phosphate buffered saline, 0.01% (v/v) Tween-20, 0.01% (w/v) albumin from chicken egg white, 1 mM Dithiothreitol, 1 μM peptide substrate, 1 μM S-Adenosyl methionine, and 15 ng/reaction enzyme, with the enzyme being omitted from negative control reactions. Compounds were added in a volume of 100 nL from dilution series prepared in DMSO, positive and negative control reactions receiving the same volume DMSO without compound. The plates were sealed with adhesive seals and incubated for 4 hours at 37 degree Celsius. Reaction progress was measured using the Transcreener™ EPIGEN methyltransferase assay (BellBrook Labs, Madison, Wis.) as recommended by the manufacturer. To each reaction 2 μL detection mix were added, containing coupling enzymes, fluorescence polarisation tracer, and AMP antibody. […]

TE11 cell line = assay: PRMT5 Biomarker Assay (symmetrical dimethylation of arginine, Histone H4 Arginine 3); format: cell-based; details: TE11 cells, 72 hours incubation, Di-Methyl Histone H4 Arginine 3 level
Experimental: Compounds of the invention may be tested for potency to inhibit symmetrical dimethylation of arginine in the following assay:
The cell line TE11 was seeded at a density of 6,000 cells per well in 96 well optical quality tissue culture plates in DME medium and 10% foetal bovine serum, and allowed to adhere for 5 hours under standard culture conditions (37 degree Celsius, 5% CO2). Compound dilutions prepared in DMSO were added to the medium, with negative control wells reserved for treatment with DMSO only and maximum inhibition controls receiving a potent PRMT5 inhibitor compound at 1 μM concentration. After incubation for 72 hours, the cells were fixed with 3.7% formaldehyde in PBS for 30 minutes at room temperature, washed with phosphate buffer saline and blocked with Odyssey blocking buffer (LI-COR, Lincoln, Nebr.). Rabbit anti-Di-Methyl Histone H4 Arginine 3 specific antibody (Epigentek) in Odyssey blocking buffer was added and incubated for 14 hours at 4 degree Celsius. […] Plates were washed and read on a PerkinElmer Envision 2103 in fluorescence intensity scanning mode (24 scans across the well area). […] Using a Columbus image analysis pipeline, individual nuclei were located by Hoechst 33342 stain and the methylation level was calculated from the Alexa647-related intensity in the same area. […]

Sequence of Full-length PRMT5 enzyme co-expressed with His6-MEP50 (O14744 whole entry): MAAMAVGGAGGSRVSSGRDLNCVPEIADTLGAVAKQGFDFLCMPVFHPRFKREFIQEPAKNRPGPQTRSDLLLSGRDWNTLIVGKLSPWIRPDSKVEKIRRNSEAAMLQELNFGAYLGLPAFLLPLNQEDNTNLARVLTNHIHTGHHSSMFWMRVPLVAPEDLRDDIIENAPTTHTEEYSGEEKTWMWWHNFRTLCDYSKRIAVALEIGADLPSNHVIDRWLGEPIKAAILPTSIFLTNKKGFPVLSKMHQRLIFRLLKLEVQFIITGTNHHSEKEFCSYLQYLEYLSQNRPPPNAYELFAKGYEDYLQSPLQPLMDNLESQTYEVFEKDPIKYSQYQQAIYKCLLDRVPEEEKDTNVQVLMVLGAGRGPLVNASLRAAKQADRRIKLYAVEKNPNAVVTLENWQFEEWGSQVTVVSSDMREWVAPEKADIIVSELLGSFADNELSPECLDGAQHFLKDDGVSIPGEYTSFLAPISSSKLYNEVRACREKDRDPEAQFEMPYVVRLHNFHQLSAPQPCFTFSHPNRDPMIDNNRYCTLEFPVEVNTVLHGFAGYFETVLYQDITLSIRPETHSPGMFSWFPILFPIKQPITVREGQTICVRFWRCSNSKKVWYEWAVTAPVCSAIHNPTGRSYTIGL
Sequence of Full-length PRMT5 enzyme co-expressed with His6-MEP50 (Q9BQA1 whole entry partner): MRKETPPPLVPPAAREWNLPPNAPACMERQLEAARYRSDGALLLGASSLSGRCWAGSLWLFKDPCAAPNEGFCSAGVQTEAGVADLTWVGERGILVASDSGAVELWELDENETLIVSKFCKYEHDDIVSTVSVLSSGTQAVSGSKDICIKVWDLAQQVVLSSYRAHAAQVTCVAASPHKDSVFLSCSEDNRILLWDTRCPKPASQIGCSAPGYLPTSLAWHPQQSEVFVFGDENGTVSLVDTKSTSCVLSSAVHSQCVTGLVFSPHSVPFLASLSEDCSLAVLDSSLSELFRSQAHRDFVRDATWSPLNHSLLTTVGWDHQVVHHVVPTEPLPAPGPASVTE

## CCOc1nc(OCc2ccccc2)ccc1C(=O)NC[C@@H](O)CNC1Cc2ccccc2C1 [Compound 1, (S)-6-(Benzyloxy)-N-(3-((2,3-dihydro-1H-inden-2-yl)amino)-2-hydroxypropyl)-2-ethoxy nicotin amide hydrochloride]
[1]
  IC50: 0.086 µM
TE11 cell line
  IC50: 0.079 µM

## CC(=O)N1CCC(Nc2nccc(C(=O)NC[C@@H](O)CNC3Cc4ccccc4C3)c2Cl)CC1 [Compound 2]
[1]
  IC50: 0.105 µM
TE11 cell line; Homo sapiens, TE-11
  IC50: 0.035 µM
